In patent publication US20260001922A1, “PEPTIDES TARGETING SODIUM CHANNELS TO TREAT PAIN” (priority 2022, published 2026):
Positions of bridges follow the written chain, without caps; N, C: chain ends. Residues, ends and D or L forms follow the SMILES beside them.

Key:
human Nav1.5 = human Nav1.5 (Homo sapiens, UniProt Q14524); assay: in vitro; type: cell-based; conditions: pH 7.4, read-out: block of hNav1.5 current (% inhibition)
human Nav1.2 = target: T1, human Nav1.2 (Homo sapiens, UniProt Q99250); assay: cell-based; conditions: HEK293, read-out: block of hNav1.2 current (% inhibition)
T1 construct: host or cells: HEK-293 (transient)

human Nav1.4 = human Nav1.4 (Homo sapiens, UniProt P35499); assay: cell-based; conditions: HEK293, read-out: block of hNav1.4 current (% inhibition)
[1] = system: rat models of thermal and chemical nociception; design: motor effect via intrathecal administration: dose or concentration left out as unconfirmed; conditions: cited from earlier work
hNav1.7 = hNav1.7 (Homo sapiens, UniProt Q15858); conditions: peptides of the literature; cited from earlier work
Sequence of hNav1.7 (Q15858 whole entry): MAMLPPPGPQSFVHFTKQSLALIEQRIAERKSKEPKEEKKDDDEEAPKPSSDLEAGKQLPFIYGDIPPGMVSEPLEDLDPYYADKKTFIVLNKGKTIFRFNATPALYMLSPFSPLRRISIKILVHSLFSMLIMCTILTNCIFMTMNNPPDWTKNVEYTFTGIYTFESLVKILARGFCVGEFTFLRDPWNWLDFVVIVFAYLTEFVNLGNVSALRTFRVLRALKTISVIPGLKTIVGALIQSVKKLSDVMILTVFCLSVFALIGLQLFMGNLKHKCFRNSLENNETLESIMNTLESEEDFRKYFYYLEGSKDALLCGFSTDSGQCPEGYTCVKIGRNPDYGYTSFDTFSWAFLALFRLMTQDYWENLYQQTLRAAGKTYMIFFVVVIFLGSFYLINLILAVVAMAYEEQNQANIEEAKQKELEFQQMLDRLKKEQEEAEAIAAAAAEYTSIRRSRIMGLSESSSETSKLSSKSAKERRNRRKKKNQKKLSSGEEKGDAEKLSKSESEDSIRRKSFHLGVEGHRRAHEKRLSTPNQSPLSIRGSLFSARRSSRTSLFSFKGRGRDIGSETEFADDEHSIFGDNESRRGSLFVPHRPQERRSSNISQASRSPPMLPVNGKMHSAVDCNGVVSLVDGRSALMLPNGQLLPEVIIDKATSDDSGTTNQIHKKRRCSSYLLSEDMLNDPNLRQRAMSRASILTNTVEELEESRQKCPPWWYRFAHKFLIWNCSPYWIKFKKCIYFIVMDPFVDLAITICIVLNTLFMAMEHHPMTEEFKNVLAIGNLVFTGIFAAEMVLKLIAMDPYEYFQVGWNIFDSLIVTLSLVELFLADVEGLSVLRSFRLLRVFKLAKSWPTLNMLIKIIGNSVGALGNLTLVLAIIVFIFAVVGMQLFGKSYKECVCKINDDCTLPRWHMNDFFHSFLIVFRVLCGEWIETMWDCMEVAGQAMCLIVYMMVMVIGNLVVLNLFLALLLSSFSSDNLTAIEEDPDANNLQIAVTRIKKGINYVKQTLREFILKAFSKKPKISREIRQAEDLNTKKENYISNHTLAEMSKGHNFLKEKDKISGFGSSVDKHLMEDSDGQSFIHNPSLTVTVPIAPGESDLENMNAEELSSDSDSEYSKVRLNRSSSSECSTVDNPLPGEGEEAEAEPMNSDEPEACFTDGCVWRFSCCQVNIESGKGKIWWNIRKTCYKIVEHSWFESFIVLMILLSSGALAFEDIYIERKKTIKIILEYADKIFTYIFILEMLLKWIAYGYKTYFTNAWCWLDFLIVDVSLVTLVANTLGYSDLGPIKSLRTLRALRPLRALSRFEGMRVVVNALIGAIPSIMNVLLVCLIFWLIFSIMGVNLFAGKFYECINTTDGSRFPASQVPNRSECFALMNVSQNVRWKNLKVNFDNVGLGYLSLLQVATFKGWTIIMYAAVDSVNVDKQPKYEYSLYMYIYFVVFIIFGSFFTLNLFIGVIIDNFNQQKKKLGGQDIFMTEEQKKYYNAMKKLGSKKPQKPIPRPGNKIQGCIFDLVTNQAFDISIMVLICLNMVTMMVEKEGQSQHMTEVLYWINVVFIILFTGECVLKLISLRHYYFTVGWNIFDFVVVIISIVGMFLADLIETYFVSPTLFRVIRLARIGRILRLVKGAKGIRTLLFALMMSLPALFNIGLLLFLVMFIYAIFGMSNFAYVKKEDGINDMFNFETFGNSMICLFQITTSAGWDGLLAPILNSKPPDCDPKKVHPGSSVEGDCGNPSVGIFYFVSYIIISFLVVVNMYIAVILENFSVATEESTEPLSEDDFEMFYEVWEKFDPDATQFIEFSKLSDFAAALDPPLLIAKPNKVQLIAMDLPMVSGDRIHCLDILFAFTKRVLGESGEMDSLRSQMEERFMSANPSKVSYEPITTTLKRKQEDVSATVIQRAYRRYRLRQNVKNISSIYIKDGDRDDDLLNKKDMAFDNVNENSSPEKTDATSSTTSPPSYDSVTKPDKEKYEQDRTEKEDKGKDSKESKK

T1 sequence (Q99250 whole entry): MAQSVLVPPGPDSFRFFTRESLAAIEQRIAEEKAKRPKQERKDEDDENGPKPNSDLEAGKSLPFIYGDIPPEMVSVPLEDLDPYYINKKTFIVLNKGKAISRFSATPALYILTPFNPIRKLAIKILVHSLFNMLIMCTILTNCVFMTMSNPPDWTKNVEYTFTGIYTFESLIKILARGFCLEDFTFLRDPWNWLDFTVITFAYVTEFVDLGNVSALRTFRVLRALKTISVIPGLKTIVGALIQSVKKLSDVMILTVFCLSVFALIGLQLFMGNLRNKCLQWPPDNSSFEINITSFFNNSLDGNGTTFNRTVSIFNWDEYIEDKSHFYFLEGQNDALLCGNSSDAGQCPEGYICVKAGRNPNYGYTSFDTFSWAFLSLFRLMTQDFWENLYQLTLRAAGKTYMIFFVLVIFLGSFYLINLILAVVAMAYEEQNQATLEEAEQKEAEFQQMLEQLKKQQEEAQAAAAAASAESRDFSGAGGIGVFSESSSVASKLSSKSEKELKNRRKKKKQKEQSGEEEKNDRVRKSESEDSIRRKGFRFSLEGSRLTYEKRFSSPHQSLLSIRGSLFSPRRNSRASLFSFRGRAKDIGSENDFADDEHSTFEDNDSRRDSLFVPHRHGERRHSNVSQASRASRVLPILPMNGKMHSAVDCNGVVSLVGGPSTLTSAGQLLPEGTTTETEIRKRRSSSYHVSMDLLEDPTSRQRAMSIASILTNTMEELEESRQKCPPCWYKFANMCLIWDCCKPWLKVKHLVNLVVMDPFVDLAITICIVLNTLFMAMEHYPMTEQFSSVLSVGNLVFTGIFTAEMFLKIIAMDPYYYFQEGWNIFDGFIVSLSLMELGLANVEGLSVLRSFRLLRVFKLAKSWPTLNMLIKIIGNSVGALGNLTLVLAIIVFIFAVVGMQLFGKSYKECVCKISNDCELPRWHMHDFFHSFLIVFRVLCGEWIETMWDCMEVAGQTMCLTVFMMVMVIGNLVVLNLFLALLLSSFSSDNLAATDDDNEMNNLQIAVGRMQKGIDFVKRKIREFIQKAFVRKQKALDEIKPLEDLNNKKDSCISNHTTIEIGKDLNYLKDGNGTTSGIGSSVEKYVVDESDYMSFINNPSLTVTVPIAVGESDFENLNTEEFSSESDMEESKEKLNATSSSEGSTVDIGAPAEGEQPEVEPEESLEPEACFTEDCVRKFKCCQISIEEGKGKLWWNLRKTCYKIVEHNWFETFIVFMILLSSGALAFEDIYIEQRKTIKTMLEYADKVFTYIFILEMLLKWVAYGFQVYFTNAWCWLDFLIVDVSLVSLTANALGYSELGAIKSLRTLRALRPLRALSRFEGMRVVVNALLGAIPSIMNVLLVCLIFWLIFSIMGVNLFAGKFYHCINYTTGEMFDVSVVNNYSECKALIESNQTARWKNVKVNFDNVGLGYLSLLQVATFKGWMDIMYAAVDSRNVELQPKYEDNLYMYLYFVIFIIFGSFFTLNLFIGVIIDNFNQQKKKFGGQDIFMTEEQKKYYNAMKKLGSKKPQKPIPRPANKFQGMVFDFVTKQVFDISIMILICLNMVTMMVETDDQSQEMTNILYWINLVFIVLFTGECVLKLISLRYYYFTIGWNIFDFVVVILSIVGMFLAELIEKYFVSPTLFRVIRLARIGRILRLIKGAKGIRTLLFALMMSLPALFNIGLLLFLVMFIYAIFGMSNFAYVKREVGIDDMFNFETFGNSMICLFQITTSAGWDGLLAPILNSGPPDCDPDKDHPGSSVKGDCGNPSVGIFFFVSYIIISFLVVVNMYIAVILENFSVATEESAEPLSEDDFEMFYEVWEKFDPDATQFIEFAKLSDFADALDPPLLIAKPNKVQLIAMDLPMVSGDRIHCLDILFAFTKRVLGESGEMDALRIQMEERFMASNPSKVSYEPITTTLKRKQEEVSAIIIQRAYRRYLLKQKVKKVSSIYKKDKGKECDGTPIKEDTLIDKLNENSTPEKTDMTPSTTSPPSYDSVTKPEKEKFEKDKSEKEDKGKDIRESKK

CC(C)C[C@@H]1NC(=O)CNC(=O)[C@H](CCC(=O)O)NC(=O)[C@@H]2CSSC[C@H](NC(=O)[C@@H](N)Cc3ccc(O)cc3)C(=O)N[C@@H](CCC(N)=O)C(=O)N[C@@H](CCCCN)C(=O)N[C@@H](C)C(=O)N[C@@H](Cc3ccccc3)C(=O)N[C@@H](Cc3c[nH]c4ccccc34)C(=O)N[C@@H]([C@@H](C)O)C(=O)N[C@H]3CSSC[C@H](NC(=O)[C@H](CCCNC(=N)N)NC1=O)C(=O)N[C@@H](CCCNC(=N)N)C(=O)N[C@@H](CC(C)C)C(=O)N[C@@H](Cc1c[nH]c4ccccc14)C(=O)N[C@H](C(=O)N[C@@H](CCCNC(=N)N)C(=O)N[C@@H](CCCCN)C(=O)N[C@@H](CCC(=O)O)C(=O)N[C@@H](CC(C)C)C(=O)N[C@@H](Cc1c[nH]c4ccccc14)C(N)=O)CSSC[C@H](NC(=O)[C@H](CCCCN)NC(=O)[C@H](CCCNC(=N)N)NC(=O)[C@H](C)NC(=O)[C@H](CO)NC(=O)[C@H](CC(=O)O)NC3=O)C(=O)N2 [PTx2-3064] (H-YCQKAFWTCDSARKCCEGLRCRLWCRKELW-NH2; disulfide 2-16, 9-21, 15-25)
inhibition at 10 µM (human Nav1.5): ~25% | inhibition at 10 µM (human Nav1.2): ~92% | inhibition at 10 µM (human Nav1.4): ~66%

CSCC[C@@H]1NC(=O)CNC(=O)[C@H](CCC(=O)O)NC(=O)[C@@H]2CSSC[C@H](NC(=O)[C@@H](N)Cc3ccc(O)cc3)C(=O)N[C@@H](CCC(N)=O)C(=O)N[C@@H](CCCCN)C(=O)N[C@@H](Cc3c[nH]c4ccccc34)C(=O)N[C@@H](CCSC)C(=O)N[C@@H](Cc3c[nH]c4ccccc34)C(=O)N[C@@H]([C@@H](C)O)C(=O)N[C@H]3CSSC[C@H](NC(=O)[C@H](C(C)C)NC1=O)C(=O)N[C@@H](CCCNC(=N)N)C(=O)N[C@@H](CC(C)C)C(=O)N[C@@H](Cc1c[nH]c4ccccc14)C(=O)N[C@H](C(=O)N[C@@H](CCCCN)C(=O)N[C@@H](CCCCN)C(=O)N[C@@H](CCCCN)C(=O)N[C@@H](CC(C)C)C(=O)N[C@@H](Cc1c[nH]c4ccccc14)C(=O)O)CSSC[C@H](NC(=O)[C@H](CCCCN)NC(=O)[C@H](CCCNC(=N)N)NC(=O)[C@H](CCC(=O)O)NC(=O)[C@H](CO)NC(=O)[C@H](CC(=O)O)NC3=O)C(=O)N2 [ProTx-II]
effect on nociceptive assays ([1]; 0.24 μg i.t., Merck's study): no effect | motor effect via intrathecal administration ([1]; Merck's study): laming effect | maximum tolerated dose ([1]; in 10 μL, rats, Janssen's study): 2 µg | analgesic effect following intrathecal injection ([1]; rat models of thermal and chemical nociception, Janssen Biotech): strong analgesic effect

DCLKFGWKCNPRNDKCCSGLKSGSNHNWCKLHL [ProTx-III]
IC50 (hNav1.7): 11.5 nM

ECQKWMWTCDSARACCEGLRCKLWCRKII [JzTx-V]
IC50 (hNav1.7): 0.6 nM
